This is an account of results in patent US10696655B2, “Therapeutic compounds and uses thereof” (GENENTECH, INC., priority 2017, dated 2020).

One assay concerns MYC. As to the kind of experiment: MYC RPL19 QuantiGene assay in MV-4-11 cells. As to conditions: Homo sapiens, MV4-11, compound 4 hours. The format is cell-based. The text has this: MYC RPL19 QuantiGene assay in MV-4-11 Cells
A further assay has as its target CBP (Homo sapiens (Human), UniProt Q92793). As to the kind of experiment: CBP TR-FRET binding assay.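 Also: displacement of a biotinylated small-molecule ligand from purified recombinant CBP read by TR-FRET, DMSO-only wells as control, IC50 from nonlinear curve fit.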 The note with it: His/Flag tagged CBP 4 nM, biotin-ligand 60 nM; read-out: CBP HTRF IC50. (In general: Time-resolved FRET reads energy transfer from a long-lived donor to a nearby acceptor.)

CBP, sequence (Q92793 whole entry): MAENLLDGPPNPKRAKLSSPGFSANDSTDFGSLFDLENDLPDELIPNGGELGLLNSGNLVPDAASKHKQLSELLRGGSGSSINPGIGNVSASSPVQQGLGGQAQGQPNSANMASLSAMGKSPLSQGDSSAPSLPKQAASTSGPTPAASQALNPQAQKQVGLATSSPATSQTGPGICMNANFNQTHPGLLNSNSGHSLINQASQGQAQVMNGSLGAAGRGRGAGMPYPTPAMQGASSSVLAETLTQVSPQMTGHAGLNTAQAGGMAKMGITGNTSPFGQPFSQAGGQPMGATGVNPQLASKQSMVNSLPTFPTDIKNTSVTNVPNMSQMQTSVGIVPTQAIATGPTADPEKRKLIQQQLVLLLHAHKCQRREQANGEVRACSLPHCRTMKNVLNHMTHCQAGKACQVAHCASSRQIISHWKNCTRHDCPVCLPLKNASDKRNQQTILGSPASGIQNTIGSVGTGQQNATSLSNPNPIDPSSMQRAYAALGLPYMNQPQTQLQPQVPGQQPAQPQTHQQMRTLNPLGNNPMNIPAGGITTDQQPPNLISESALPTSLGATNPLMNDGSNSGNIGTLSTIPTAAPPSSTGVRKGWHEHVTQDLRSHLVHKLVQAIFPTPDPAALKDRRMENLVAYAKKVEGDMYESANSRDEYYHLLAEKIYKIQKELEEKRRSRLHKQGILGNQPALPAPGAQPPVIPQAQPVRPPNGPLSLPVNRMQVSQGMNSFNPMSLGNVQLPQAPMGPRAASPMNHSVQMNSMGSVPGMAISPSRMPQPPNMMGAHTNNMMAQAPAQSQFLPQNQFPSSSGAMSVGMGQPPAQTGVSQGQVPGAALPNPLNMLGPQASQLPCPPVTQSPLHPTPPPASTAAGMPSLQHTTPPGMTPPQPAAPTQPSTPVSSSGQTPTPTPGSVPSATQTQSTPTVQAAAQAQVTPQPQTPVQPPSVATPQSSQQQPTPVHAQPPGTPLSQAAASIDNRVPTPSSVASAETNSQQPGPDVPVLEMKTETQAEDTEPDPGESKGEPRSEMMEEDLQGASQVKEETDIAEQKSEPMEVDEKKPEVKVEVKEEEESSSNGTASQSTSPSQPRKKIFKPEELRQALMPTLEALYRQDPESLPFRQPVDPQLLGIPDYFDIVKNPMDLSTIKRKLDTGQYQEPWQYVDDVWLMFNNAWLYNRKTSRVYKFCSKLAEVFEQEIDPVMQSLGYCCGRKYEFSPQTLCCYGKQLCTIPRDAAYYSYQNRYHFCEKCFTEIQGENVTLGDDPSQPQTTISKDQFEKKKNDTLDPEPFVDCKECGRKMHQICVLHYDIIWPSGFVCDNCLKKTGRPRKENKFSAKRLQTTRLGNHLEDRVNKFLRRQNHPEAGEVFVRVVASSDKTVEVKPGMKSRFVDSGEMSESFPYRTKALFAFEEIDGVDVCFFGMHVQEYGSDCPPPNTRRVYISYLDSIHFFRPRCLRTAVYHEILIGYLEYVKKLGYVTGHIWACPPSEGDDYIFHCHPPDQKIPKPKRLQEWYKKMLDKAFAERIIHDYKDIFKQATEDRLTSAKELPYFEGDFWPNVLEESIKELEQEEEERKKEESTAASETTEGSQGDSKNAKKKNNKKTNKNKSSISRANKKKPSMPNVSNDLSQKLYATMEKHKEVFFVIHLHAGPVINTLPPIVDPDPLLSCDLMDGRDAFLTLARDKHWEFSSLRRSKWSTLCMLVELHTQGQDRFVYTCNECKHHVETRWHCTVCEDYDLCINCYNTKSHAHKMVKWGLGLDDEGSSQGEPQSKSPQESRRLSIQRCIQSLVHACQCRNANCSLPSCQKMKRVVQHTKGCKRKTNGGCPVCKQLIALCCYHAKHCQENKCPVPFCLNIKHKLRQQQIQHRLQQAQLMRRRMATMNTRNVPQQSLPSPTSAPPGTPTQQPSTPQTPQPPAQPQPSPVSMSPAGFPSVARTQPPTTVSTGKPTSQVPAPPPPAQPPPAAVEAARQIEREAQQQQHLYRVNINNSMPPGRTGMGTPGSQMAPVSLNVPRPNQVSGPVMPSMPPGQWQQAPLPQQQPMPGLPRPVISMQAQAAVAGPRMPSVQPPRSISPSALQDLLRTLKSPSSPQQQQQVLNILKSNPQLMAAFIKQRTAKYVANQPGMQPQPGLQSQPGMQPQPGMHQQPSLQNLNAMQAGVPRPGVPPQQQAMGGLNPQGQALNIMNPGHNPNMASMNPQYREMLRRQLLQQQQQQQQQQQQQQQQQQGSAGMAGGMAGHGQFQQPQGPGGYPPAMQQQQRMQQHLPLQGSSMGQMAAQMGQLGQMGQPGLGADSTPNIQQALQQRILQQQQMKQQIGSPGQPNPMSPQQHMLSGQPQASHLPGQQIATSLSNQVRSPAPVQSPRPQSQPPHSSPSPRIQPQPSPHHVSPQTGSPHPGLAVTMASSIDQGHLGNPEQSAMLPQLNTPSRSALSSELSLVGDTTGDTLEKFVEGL
Procedure for CBP: IC50 Measurements for Inhibitors Using CBP TR FRET Binding Assay
His/Flag epitope tagged CBP was cloned, expressed, and purified to homogeneity. CBP binding and inhibition was assessed by monitoring the engagement of a biotinylated small molecule compound with the target using the TR-FRET assay technology (Perkin-Elmer). Specifically, in a 384 well ProxiPlate CBP (4 nM final) was combined with biotin-ligand (60 nM final) in 50 mM HEPES (pH 7.5), 50 mM NaCl, 1 mM TCEP, 0.01% (w/v) BSA, and 0.008% (w/v) Brij-35 either in the presence of DMSO (final 0.2% DMSO) or compound dilution series in DMSO. […] After twenty minutes of equilibration, the plates were read on an Envision instrument and IC50S calculated using a four parameter non-linear curve fit.

As a reminder, the IC50 is the midpoint of a concentration-inhibition curve. Turning to `C=C(C)c1cc(N2CCCc3cc(-c4cnn(C)c4)c(C(F)F)cc32)cc2c(C(=O)NC)cn(C)c12` [Example 107, 5-(7-(difluoromethyl)-6-(1-methyl-1H-pyrazol-4-yl)-3,4-dihydroquinolin-1(2H)-yl)-N,1-dimethyl-7-(prop-1-en-2-yl)-1H-indole-3-carboxamide], the IC50 with MYC turned out to be 147 nM; at CBP, 16 nM.
For `CNC(=O)N1CCOc2ccc(N3CCCc4cc(-c5cnn(C)c5)c(C(F)F)cc43)cc2C1` [Example 113, 7-(7-(difluoromethyl)-6-(1-methyl-1H-pyrazol-4-yl)-3,4-dihydroquinolin-1(2H)-yl)-N-methyl-2,3-dihydrobenzo[f][1,4]oxazepine-4(5H)-carboxamide], in that order: 157 nM and 14 nM.
Taken in the same sequence, the figures for `CNC(=O)c1c[nH]c2cnc(N3CCCc4cc(-c5cnn(C)c5)c(C(F)F)cc43)cc12` [Example 67] were 358 nM and 5 nM.
Taken in the same sequence, the figures for `CNC(=O)c1c[nH]c2c(C(C)C)nc(N3CCCc4cc(-c5cnn(C)c5)c(C(F)F)cc43)cc12` [Example 63] were 53 nM and 2 nM.
For the molecule `CCc1cc(N2CCCc3cc(-c4cnn(C)c4)c(C(F)F)cc32)cc2c1n(C)c(=O)n2C` [Example 37], the results for the IC50 in the assay with MYC and at CBP were 281 nM and 11 nM, respectively.
Taken in the same sequence, the figures for `CN(C)c1cc(N2CCCc3cc(-c4cnn(C)c4)c(C(F)F)cc32)cc2c1n(C)c(=O)n2C` [Example 41, 6-(7-(difluoromethyl)-6-(1-methyl-1H-pyrazol-4-yl)-3,4-dihydroquinolin-1(2H)-yl)-4-(dimethylamino)-1,3-dimethyl-1H-benzo[d]imidazol-2(3H)-one] were 136 nM and 5 nM.
For `CNC(=O)c1ccc2cccc(N3CCCc4cc(-c5cnn(C)c5)c(C(F)F)cc43)c2n1` [Example 120, 7-(difluoromethyl)-N-methyl-6-(1-methyl-1H-pyrazol-4-yl)-3,4-dihydro-2H-[1,8′-biquinoline]-2′-carboxamide], in that order: 632 nM and 6 nM.
On to `Cn1cc(-c2cc3c(cc2C(F)F)N(c2cc(C4=CC[S+]([O-])CC4)c4c(c2)n(C)c(=O)n4C)CCC3)cn1` (stereo not drawn) [Example 98, 6-(7-(difluoromethyl)-6-(1-methyl-1H-pyrazol-4-yl)-3,4-dihydroquinolin-1(2H)-yl)-1,3-dimethyl-4-(1-oxido-3,6-dihydro-2H-thiopyran-4-yl)-1H-benzo[d]imidazol-2(3H)-one], for which the figures for the IC50 with MYC and on CBP were 86 nM and 4 nM, respectively.
Take `Cn1cc(-c2cc3c(cc2C(F)F)N(c2ccc4c(c2F)n(C)c(=O)n4C)CCC3)cn1` [Example 34]: the 50% inhibitory concentration (IC50) in the assay with MYC was greater than 10000 nM; at CBP, greater than 4900 nM.
For `CNC(=O)c1cn(C)c2cc(F)c(N3CCCc4cc(-c5cnn(C)c5)c(C(F)F)cc43)cc12` [Example 56], in that order: 4040 nM and 10 nM.
As for `Cc1cc2c(cc1N1CCCc3cc(-c4cnn(C)c4)c(C(F)F)cc31)n(C)c(=O)n2C` [Example 46], the figures for the IC50 with MYC and at CBP were 413 nM and 13 nM, respectively.
As for `CCc1cc2c(cc1N1CCCc3cc(-c4cnn(C)c4)c(C(F)F)cc31)n(C)c(=O)n2C` [Example 47], the IC50 in the assay on MYC turned out to be 1110 nM; at CBP, 39 nM.
Consider `CNC(=O)c1cn(C)c2ccc(N3CCCc4cc(-c5cnn(C)c5)c(C(F)F)cc43)c(F)c12` [Example 55], for which the figures for the IC50 in the assay with MYC and on CBP were 115 nM and 4 nM, respectively.
For `CN1C(=O)Cc2ccc(N3CCCc4cc(-c5cnn(C)c5)c(C(F)F)cc43)cc21` [Example 90, 6-[7-(difluoromethyl)-6-(1-methylpyrazol-4-yl)-3,4-dihydro-2H-quinolin-1-yl]-1-methyl-indolin-2-one], in that order: 96 nM and 32 nM.
For `CNC(=O)c1c[nH]c2ncc(N3CCCc4cc(-c5cnn(C)c5)c(C(F)F)cc43)nc12` [Example 69], in that order: 47 nM and 4 nM.
Turning to `CNC(=O)c1c[nH]c2ccc(N3CCCc4cc(-c5cnn(C)c5)c(C(F)F)cc43)nc12` [Example 65], the IC50 in the assay with MYC is 150 nM; on CBP, 5 nM.
Taken in the same sequence, the figures for `Cn1cc(-c2cc3c(cc2C(F)F)N(c2cc(N4CCOCC4)c4c(c2)n(C)c(=O)n4C)CCC3)cn1` [Example 45] were 11 nM and 4 nM.
Regarding `CNC(=O)c1cn(C)c2ccc(N3CCCc4cc(-c5cnn(C)c5)c(C(F)F)cc43)cc12` [Example 50, 5-(7-(difluoromethyl)-6-(1-methyl-1H-pyrazol-4-yl)-3,4-dihydroquinolin-1(2H)-yl)-N,1-dimethyl-1H-indole-3-carboxamide], the 50% inhibitory concentration (IC50) came out at 496 nM in the assay on MYC and 9 nM at CBP.
With `CNC(=O)Nc1cc(OC)cc(N2CCCc3cc(-c4cnn(C)c4)c(C(F)F)cc32)n1` [Example 123, 1-(6-(7-(difluoromethyl)-6-(1-methyl-1H-pyrazol-4-yl)-3,4-dihydroquinolin-1(2H)-yl)-4-methoxypyridin-2-yl)-3-methylurea], the concentration for half-maximal inhibition (IC50) with MYC turned out to be 3380 nM; on CBP, 115 nM.
Turning to `Cn1cc(-c2cc3c(cc2C(F)F)N(c2cc(N4CCCC4)c4c(c2)n(C)c(=O)n4C)CCC3)cn1` [Example 43], the values for the IC50 with MYC and at CBP were 115 nM and 6 nM, respectively.
Taken in the same sequence, the figures for `CNC(=O)c1c[nH]c2c(C)nc(N3CCCc4cc(-c5cnn(C)c5)c(C(F)F)cc43)cc12` [Example 64, 5-(7-(difluoromethyl)-6-(1-methyl-1H-pyrazol-4-yl)-3,4-dihydroquinolin-1(2H)-yl)-N,7-dimethyl-1H-pyrrolo[2,3-c]pyridine-3-carboxamide] were 143 nM and 2 nM.
Take `CCC(=O)N1CCOc2ccc(N3CCCc4cc(-c5cnn(C)c5)c(C(F)F)cc43)cc2C1` [Example 78, 1-(7-(7-(difluoromethyl)-6-(1-methyl-1H-pyrazol-4-yl)-3,4-dihydroquinolin-1(2H)-yl)-2,3-dihydrobenzo[f][1,4]oxazepin-4(5H)-yl)propan-1-one]: the IC50 in the assay on MYC was 780 nM; at CBP, 22 nM.
Taken in the same sequence, the figures for `CNC(=O)c1cn(C)c2cc(C)c(N3CCCc4cc(-c5cnn(C)c5)c(C(F)F)cc43)cc12` [Example 57] were 302 nM and 9 nM.
In the case of `CNC(=O)c1cn(C)c2c(C)cc(N3CCCc4cc(-c5cnn(C)c5)c(C(F)F)cc43)cc12` [Example 104, 5-(7-(difluoromethyl)-6-(1-methyl-1H-pyrazol-4-yl)-3,4-dihydroquinolin-1(2H)-yl)-N,1,7-trimethyl-1H-indole-3-carboxamide], the IC50 in the assay with MYC was determined as 377 nM; on CBP it was 16 nM.
Take `CNC(=O)c1c[nH]c2c(C(C)C)cc(N3CCCc4cc(-c5cnn(C)c5)c(C(F)F)cc43)cc12` [Example 62, 5-(7-(difluoromethyl)-6-(1-methyl-1H-pyrazol-4-yl)-3,4-dihydroquinolin-1(2H)-yl)-7-isopropyl-N-methyl-1H-indole-3-carboxamide]: the IC50 amounted to 84 nM in the assay with MYC and 12 nM at CBP.
Regarding `COc1cc(N2CCCc3cc(-c4cnn(C)c4)c(C(F)F)cc32)cc2c1n(C)c(=O)n2C` [Example 100, 6-(7-(difluoromethyl)-6-(1-methyl-1H-pyrazol-4-yl)-3,4-dihydroquinolin-1(2H)-yl)-4-methoxy-1,3-dimethyl-1H-benzo[d]imidazol-2(3H)-one], the IC50 in the assay with MYC was found to be 164 nM; on CBP, 10 nM.
Taken in the same sequence, the figures for `CC(=O)N1CCOc2ccc(N3CCCc4cc(-c5cnn(C)c5)c(C(F)F)cc43)cc2C1` [Example 112, 1-(7-(7-(difluoromethyl)-6-(1-methyl-1H-pyrazol-4-yl)-3,4-dihydroquinolin-1(2H)-yl)-2,3-dihydrobenzo[f][1,4]oxazepin-4(5H)-yl)ethanone] were 2100 nM and 32 nM.
In the case of `CC(C)c1cc(N2CCCc3cc(-c4cnn(C)c4)c(C(F)F)cc32)cc2c1n(C)c(=O)n2C` [Example 96, 6-(7-(difluoromethyl)-6-(1-methyl-1H-pyrazol-4-yl)-3,4-dihydroquinolin-1(2H)-yl)-4-isopropyl-1,3-dimethyl-1H-benzo[d]imidazol-2(3H)-one], the IC50 was found to be 220 nM in the assay with MYC and 9 nM at CBP.
On to `Cn1cc(-c2cc3c(cc2C(F)F)N(c2cc4c(cc2F)n(C)c(=O)n4C)CCC3)cn1` [Example 35], for which the IC50 in the assay on MYC amounted to 428 nM; at CBP, 23 nM.
As to `CNC(=O)c1cn(C)c2c(C)cc(N3CCCc4cc(-c5cnn(C)c5)c(C(F)F)cc43)nc12` [Example 60], the IC50 worked out at 108 nM in the assay with MYC and 9 nM on CBP.
`CNC(=O)c1c[nH]c2ncc(N3CCCc4cc(-c5cnn(C)c5)c(C(F)F)cc43)cc12` [Example 68]: the figures for the IC50 in the assay on MYC and on CBP were 4380 nM and 15 nM, respectively.
On to `Cn1cc(-c2cc3c(cc2C(F)F)N(c2ccc4c(c2)n(C)c(=O)n4C)CCC3)cn1` [Example 18], for which the IC50 in the assay on MYC amounted to 1020 nM; on CBP, 19 nM.
Taken in the same sequence, the figures for `CNC(=O)c1c[nH]c2c(C)cc(N3CCCc4cc(-c5cnn(C)c5)c(C(F)F)cc43)nc12` [Example 66] were 46 nM and 4 nM.
Consider `CNC(=O)c1ccc2c(c1)c(N1CCCc3cc(-c4cnn(C)c4)c(C(F)F)cc31)nn2C1CCOCC1` [Example 83, 3-(7-(difluoromethyl)-6-(1-methyl-1H-pyrazol-4-yl)-3,4-dihydroquinolin-1(2H)-yl)-N-methyl-1-(tetrahydro-2H-pyran-4-yl)-1H-indazole-5-carboxamide], for which the IC50 was 177 nM in the assay with MYC and 9 nM at CBP.
For `CNC(=O)c1cn(C)c2ccc(N3CCCc4cc(-c5cnn(C)c5)c(C(F)F)cc43)nc12` [Example 58], in that order: 181 nM and 9 nM.
Taken in the same sequence, the figures for `CNC(=O)c1cn(C)c2cnc(N3CCCc4cc(-c5cnn(C)c5)c(C(F)F)cc43)cc12` [Example 59] were 205 nM and 6 nM.
